Experimental data published in patent US7410976B2, “Spirochromanone derivatives” (Merck & Co., Inc., priority 2005, dated 2008).
Structures can show the parent of a compound that is named as a salt.

What was measured:
human ACC1 = human ACC1 (Homo sapiens, UniProt Q13085); assay: Acetyl CoA carboxylase (ACC) activity inhibition test, human ACC1; type: biochemical; details: 1 μmol/liter compound; control: DMSO well without test compound; read-out: Inhibition (%) by 1 μmol/liter Chemical, human ACC1
Description: (§1) A. Pharmacological Test Example (Acetyl CoA Carboxylase (ACC) Activity Inhibition Test)
(§2) Concretely, 0.8 μl of the diluted test compound is added to each well of 96-well assay plate (Perkin Elmer Opti Plate), then 40 μl of a substrate solution (50 mM Hepes sodium (pH 7.5), 2 mM DTT, 10 mM ATP, 500 μM acetyl CoA, 0.17 mM NaH[^14C]O3 (58 mCi/mmol, by Amersham), 8 mM NaHCO3) is added to each well, and 40 μL of an enzyme solution (1 to 2 nM human ACC1 or human ACC2, 50 mM Hepes sodium (pH 7.5), 2 mM DTT, 40 mM MgCl2, 40 mM tripotassium citrate 1 mg/ml fetal bovine serum albumin) is added thereto. Then, the upper side of the plate is sealed up, and the plate is incubated with gently stirring at 37° C. for 40 minutes. Next, 20 μl of 1N HCl is added to each well to stop the enzyme reaction, and the assay plate is stirred overnight to remove the unreacted NaH[^14C]O3. Next, 100 μl of a scintillator (Perkin Elmer's Microscinti 40) is added to each well and the plate is stirred, then the radioactivity of the fixed [^14C] is counted using a microplate scintillation counter (Perlin Elmer's Topcount), the radioactivity of which represents the enzyme activity in each well. The human ACC1 and human ACC2 enzyme-inhibition activities of the test compounds are calculated, based on the radioactivity of the well added by DMSO without test compound as a control.

human ACC2 = human ACC2 (Homo sapiens, UniProt O00763); assay: Acetyl CoA carboxylase (ACC) activity inhibition test, human ACC2; type: biochemical; details: 1 μmol/liter compound; control: DMSO well without test compound; read-out: Inhibition (%) by 1 μmol/liter Chemical, human ACC2
human ACC2, sequence (O00763 whole entry): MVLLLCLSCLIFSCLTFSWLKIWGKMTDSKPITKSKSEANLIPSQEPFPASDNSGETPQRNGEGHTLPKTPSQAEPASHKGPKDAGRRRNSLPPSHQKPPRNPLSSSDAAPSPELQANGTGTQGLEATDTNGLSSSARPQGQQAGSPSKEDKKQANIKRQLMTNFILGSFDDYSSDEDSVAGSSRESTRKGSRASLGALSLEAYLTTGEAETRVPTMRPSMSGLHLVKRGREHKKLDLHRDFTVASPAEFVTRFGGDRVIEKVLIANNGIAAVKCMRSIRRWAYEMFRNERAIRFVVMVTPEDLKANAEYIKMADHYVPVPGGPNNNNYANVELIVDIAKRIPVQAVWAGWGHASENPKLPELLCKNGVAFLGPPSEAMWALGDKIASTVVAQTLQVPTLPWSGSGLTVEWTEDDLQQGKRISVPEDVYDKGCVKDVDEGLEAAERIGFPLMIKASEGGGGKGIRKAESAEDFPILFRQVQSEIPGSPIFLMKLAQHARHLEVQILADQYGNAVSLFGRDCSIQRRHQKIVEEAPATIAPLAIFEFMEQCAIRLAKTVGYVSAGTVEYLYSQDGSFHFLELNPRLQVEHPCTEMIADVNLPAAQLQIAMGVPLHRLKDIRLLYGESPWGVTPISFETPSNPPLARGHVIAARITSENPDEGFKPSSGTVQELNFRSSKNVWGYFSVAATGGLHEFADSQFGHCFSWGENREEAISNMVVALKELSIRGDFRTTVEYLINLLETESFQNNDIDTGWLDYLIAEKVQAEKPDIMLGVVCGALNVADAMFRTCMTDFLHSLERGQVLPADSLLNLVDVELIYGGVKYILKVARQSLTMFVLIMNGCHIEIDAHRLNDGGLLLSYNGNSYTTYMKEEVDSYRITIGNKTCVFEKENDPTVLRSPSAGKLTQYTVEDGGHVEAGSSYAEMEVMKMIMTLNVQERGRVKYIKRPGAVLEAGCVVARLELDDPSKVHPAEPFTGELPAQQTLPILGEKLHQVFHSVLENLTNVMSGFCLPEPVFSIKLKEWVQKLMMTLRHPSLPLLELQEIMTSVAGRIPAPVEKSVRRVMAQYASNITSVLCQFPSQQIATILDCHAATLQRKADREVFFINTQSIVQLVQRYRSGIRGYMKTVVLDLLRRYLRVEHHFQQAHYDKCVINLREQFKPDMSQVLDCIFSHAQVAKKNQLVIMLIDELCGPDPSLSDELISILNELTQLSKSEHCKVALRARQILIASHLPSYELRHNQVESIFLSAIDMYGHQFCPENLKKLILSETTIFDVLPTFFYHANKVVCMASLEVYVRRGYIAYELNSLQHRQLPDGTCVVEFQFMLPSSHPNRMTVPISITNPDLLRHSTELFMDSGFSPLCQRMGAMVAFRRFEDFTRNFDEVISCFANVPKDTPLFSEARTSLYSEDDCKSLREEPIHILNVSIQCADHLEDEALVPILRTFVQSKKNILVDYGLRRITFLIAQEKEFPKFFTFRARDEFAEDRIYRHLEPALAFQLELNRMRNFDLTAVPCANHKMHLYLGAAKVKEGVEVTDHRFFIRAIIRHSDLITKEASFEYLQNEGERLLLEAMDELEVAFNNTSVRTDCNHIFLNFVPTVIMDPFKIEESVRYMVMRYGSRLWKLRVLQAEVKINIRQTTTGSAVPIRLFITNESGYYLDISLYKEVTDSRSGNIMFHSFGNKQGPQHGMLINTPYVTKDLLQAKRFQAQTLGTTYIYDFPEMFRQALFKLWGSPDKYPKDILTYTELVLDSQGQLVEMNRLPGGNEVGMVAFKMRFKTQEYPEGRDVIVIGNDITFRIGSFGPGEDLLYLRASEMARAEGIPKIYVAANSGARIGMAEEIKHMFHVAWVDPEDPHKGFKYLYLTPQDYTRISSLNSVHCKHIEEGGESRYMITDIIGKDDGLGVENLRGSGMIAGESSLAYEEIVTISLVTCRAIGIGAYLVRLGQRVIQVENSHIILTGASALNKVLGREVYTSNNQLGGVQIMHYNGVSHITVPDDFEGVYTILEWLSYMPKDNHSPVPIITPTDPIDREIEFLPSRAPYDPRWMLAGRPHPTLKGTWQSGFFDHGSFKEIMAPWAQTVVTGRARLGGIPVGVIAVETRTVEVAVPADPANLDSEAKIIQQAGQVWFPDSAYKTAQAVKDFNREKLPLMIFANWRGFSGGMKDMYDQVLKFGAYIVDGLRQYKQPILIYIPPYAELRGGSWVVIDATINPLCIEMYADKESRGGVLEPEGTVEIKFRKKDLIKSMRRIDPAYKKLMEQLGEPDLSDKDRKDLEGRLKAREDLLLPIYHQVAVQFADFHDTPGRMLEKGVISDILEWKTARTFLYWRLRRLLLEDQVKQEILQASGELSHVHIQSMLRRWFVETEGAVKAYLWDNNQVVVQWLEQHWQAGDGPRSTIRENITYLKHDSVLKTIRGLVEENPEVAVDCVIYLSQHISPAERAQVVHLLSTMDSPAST
Description: as §1, §2

| SMILES | inhibition at 1 µM (human ACC1) [%] | inhibition at 1 µM (human ACC2) [%] |
| --- | --- | --- |
| COc1cc(C(=O)N2CCC3(CC2)CC(=O)c2cc(NC(C)=O)ccc2O3)nc2ccccc12 [Example 2, N-{1′-[(4-methoxyquinolin-2-yl)carbonyl]-4-oxospiro[chroman-2,4′-piperidin]-6-yl}acetamide hydrochloride] | 82 | 85 |
| COc1cc(C(=O)N2CCC3(CC2)CC(=O)c2cc(NC(C)=O)ccc2O3)nc2c(OC)cccc12 [Example 3, N-{1′-[(4,8-dimethoxyquinolin-2-yl)carbonyl]-4-oxospiro[chroman-2,4′-piperidin]-6-yl}acetamide] | 100 | 98 |
| COc1cc(C(=O)N2CCC3(CC2)CC(=O)c2ccccc2O3)nc2c(OC)cccc12 [Example 4, 1′-[(4,8-dimethoxyquinolin-2-yl)carbonyl]spiro[chroman-2,4′-piperidin]-4-one] | 93 | 96 |
| COc1cc(C(=O)N2CCC3(CC2)CC(=O)c2cc(-c4nnn[nH]4)ccc2O3)nc2c(OC)cccc12 [Example 18, 1′-[(4,8-dimethoxyquinolin-2-yl)carbonyl]-6-(1H-tetrazol-5-yl)spiro[chroman-2,4′-piperidin]-4-one sodium salt] | 97 | 99 |

The next lines start with the values.

| inhibition at 1 µM (human ACC1) [%] | inhibition at 1 µM (human ACC2) [%] | SMILES |
| --- | --- | --- |
| 97 | 97 | COc1cc(C(=O)N2CCC3(CC2)CC(=O)c2cc(N)ccc2O3)nc2c(OC)cccc12 [Example 5, 6-amino-1′-[(4,8-dimethoxyquinolin-2-yl)carbonyl]spiro[chroman-2,4′-piperidin]-4-one] |
| 100 | 99 | COc1cc(C(=O)N2CCC3(CC2)CC(=O)c2cc(Nc4ccnn4C)ccc2O3)nc2c(OC)cccc12 [Example 10, 1′-[(4,8-dimethoxyquinolin-2-yl)carbonyl]-6-[(1-methyl-1H-pyrazol-5-yl)amino]spiro[chroman-2,4′-piperidin]-4-one] |
| 99 | 97 | CCOc1cc(C(=O)N2CCC3(CC2)CC(=O)c2cc(-c4nnn[nH]4)ccc2O3)nc2c(C3CC3)nccc12 [Example 21, 1′-[(8-cyclopropyl-4-ethoxy-1.7-naphthyridin-2-yl)carbonyl]-6-(1H-tetrazol-5-yl)spiro[chroman-2,4′-piperidin]-4-one] |
| 101 | 100 | COc1cc(C(=O)N2CCC3(CC2)CC(=O)c2cc(-c4nc[nH]n4)ccc2O3)nc2c(OC)cccc12 [Example 27, 1′-[(4,8-dimethoxyquinolin-2-yl)carbonyl]-6-(1H-1,2,4-triazol-3-yl)-spiro[chroman-2,4′-piperidin]-4-one] |
